# Values quoted from earlier work, collected in US20250375417A1, “OREXIN RECEPTOR 2 (OX2R) AGONIST FOR USE IN NARCOLEPSY TYPE 1 (NT1)” (TAKEDA PHARMACEUTICAL COMPANY LIMITED, priority 2024, published 2025).
# Conditions: phase 2 clinical studies of firazorexton; cited from earlier work
structure (smiles),measurement,value
CC(C)(O)C(=O)N1CC[C@H](NS(C)(=O)=O)[C@@H]1Cc1cccc(-c2cc(F)cc(F)c2)c1F [firazorexton],Liver toxicity,liver toxicity was observed
